Reference: ChEMBL document CHEMBL1201862, “PubChem BioAssay data set” (2004)
Active and inactive are the calls of the source.

Experiments:
Type in all cases: functional
[1] = target: T1, Polyadenylate-binding protein 1 (Homo sapiens, UniProt P11940); assay: PABP1 MLLE–PAM2 interaction inhibitors, dose response, miRNA deadenylation inhibitor project, biochemical, fluorescence polarization, Cy5-PAM2 peptide, secondary (AID 602260); settings: read-out: IC50_Mean
[2] = target: T1, Polyadenylate-binding protein 1; assay: PABP1 MLLE–PAM2 binding inhibitor potency, dose response, biochemical, fluorescence polarization, FITC-PAM2 peptide (AID 602259); settings: read-out: IC50_Mean
[3] = target: T2, Protein RecA (Mycobacterium tuberculosis, UniProt P9WHJ3); assay: Fluorescence Cell-Free Homogeneous Dose Retest to Identify Inhibitors of RecA-Intein Splicing Activity. [Related pubchem assays (depositor defined):AID2097, AID2223, AID489010, AID492950]
T2 sequence (P9WHJ3 whole entry): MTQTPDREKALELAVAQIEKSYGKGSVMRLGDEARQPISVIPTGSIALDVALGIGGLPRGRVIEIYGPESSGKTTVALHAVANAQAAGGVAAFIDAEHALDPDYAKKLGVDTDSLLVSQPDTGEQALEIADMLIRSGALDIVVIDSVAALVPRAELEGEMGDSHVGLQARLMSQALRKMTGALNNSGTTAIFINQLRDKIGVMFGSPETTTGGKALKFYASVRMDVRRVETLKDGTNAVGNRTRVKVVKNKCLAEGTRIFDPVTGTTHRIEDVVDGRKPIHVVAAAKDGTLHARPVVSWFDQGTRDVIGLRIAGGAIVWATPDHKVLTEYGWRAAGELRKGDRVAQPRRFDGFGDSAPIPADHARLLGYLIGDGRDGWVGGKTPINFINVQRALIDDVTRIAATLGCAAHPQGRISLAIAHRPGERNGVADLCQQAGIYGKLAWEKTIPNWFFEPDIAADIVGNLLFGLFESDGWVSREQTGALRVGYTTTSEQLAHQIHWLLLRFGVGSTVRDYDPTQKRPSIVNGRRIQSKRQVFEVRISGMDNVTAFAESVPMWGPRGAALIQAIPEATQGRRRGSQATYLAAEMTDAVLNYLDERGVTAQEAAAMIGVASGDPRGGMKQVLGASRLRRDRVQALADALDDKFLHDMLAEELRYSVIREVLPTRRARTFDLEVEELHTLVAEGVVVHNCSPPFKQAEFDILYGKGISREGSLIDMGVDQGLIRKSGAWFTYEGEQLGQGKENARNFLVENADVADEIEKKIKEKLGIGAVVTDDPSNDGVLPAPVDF

[4] = target: T3, Replicative DNA helicase DnaB (Mycobacterium tuberculosis, UniProt P9WMR3); assay: DnaB intein splicing inhibitors, dose response, biochemical, cell-free fluorescence (AID 449749)
T3 sequence (P9WMR3 whole entry): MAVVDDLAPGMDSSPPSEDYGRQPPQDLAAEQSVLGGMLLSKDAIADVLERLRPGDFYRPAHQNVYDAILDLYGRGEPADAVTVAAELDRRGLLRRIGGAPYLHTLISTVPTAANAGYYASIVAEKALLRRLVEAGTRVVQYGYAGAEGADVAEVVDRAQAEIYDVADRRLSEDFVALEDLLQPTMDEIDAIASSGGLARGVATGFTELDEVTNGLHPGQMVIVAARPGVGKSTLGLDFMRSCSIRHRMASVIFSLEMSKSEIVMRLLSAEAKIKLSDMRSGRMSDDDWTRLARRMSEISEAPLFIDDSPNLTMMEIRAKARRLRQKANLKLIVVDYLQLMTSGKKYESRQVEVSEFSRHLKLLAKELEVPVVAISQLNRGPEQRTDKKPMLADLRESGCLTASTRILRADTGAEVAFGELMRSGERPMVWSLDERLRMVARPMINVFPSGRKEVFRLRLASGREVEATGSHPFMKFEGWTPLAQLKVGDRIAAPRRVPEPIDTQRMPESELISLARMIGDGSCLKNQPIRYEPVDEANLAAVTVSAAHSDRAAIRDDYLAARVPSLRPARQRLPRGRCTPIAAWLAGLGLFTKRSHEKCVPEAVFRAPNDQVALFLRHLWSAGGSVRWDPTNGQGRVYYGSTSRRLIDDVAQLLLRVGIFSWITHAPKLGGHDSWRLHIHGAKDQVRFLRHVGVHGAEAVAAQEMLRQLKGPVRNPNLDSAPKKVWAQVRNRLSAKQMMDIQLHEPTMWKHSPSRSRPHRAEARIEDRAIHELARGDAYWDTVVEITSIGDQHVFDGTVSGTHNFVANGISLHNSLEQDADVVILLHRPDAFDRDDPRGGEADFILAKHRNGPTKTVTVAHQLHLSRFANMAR

[5] = target: T4, Heat shock factor protein 1 (Mus musculus, UniProt P38532); assay: inhibition of MG132-induced HSE-luciferase signal, confirmation, cell-based, NIH3T3, luminescence, dose retest (AID 2382);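 also: NIH3T3 fibroblasts with HSF1-driven luciferase reporter stressed by proteasome inhibitor MG132; luminescence from HSF1-driven luciferase expression after 8 hours of MG132 stress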
T4 sequence (P38532 whole entry): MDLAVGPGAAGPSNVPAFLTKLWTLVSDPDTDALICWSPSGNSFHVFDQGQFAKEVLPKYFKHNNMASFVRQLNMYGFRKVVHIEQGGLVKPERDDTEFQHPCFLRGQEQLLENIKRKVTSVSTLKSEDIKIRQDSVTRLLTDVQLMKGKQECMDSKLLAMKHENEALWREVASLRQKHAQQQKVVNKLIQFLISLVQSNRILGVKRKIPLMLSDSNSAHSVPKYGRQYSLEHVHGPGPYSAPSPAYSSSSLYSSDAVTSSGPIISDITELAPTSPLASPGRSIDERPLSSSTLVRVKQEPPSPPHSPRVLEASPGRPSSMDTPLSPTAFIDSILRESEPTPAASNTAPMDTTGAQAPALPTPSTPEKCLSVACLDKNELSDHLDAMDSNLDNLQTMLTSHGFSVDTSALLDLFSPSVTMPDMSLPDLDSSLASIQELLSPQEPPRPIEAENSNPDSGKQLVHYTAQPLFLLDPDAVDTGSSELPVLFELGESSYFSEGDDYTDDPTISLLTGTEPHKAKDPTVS

T1 sequence (P11940 whole entry): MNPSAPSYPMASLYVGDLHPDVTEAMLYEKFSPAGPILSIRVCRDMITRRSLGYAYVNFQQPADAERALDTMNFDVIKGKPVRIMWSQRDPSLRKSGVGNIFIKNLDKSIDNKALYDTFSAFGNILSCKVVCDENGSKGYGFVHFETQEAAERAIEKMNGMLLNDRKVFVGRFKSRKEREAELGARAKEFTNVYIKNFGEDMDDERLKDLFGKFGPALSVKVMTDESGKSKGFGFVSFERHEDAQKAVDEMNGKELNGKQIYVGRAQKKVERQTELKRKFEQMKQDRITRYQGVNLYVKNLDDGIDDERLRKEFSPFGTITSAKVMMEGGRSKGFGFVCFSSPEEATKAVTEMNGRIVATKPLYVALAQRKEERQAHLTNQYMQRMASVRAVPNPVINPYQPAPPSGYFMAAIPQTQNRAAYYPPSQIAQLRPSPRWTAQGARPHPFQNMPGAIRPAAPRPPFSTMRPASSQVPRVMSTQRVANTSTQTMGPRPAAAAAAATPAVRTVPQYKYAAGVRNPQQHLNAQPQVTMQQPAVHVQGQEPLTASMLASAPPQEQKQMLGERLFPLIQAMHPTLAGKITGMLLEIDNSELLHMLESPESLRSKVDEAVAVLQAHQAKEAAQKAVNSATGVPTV

Structure (SMILES)	IC50 [1]	IC50 [2]	EC50 [3]	AC50 [4]	EC50 [5]
Cc1nc(NS(=O)(=O)c2ccccc2)sc1NC(=O)OC(C)C	> 66 µM (inactive)	> 66 µM (inactive)	–	–	–
CC1(C)CC2=C(CO1)C(S)=NC(c1ccccc1)N2CC1CCCO1 (configuration not stated)	> 66 µM (inactive)	> 66 µM (inactive)	–	–	–
N#CC1=C(N)Oc2[nH]nc(-c3cccs3)c2C1c1cccs1 (configuration not stated)	–	–	2.02 µM (active)	2.63 µM (active)	–
Cn1c(=O)c2c(O)cc(N)nc2n(C)c1=O	> 66 µM (inactive)	56.2 µM (inactive)	–	–	–
COCCOC(=O)C1=C(C)N=C2SCCC(=O)N2C1c1ccc(OC(=O)c2ccco2)cc1 (configuration not stated)	–	–	14 µM (active)	19.8 µM (active)	–
CC(=O)Nc1ccc(S(=O)(=O)NCC(=O)N2CCN(S(=O)(=O)c3cccs3)CC2)cc1	> 66 µM (inactive)	> 66 µM (inactive)	–	–	–
O=C(Nc1ccc(Cl)cc1)C1c2cccc[n+]2CC(=O)N1Cc1ccc2c(c1)OCO2 (configuration not stated)	–	–	13.3 µM (active)	> 380 µM (inactive)	–
COc1cc(NC(S)=Nc2ccc(N(C)C(C)=O)cc2)cc(OC)c1	> 66 µM (inactive)	> 66 µM (inactive)	–	–	–
CC1=NN(c2ccccc2)C(=O)/C1=C\c1c[nH]nc1-c1ccccc1	–	–	2.54 µM (active)	4.1 µM (active)	–
COc1ccc(-c2c(=O)n(OC)c3ccccc3[n+]2[O-])cc1OC	–	–	> 380 µM (inactive)	> 380 µM (inactive)	–
COc1ccc(OCCCC(=O)OCC(=O)Nc2ncc(Cl)cc2Cl)cc1	> 66 µM (inactive)	30.3 µM (inactive)	–	–	–
COCc1n[nH]c2c1C1(CCSCC1)C(C#N)=C(N)O2	–	–	2.26 µM (active)	18.5 µM (active)	> 195 µM (not active)
CCCCC1OC23CCCCC2C(C#N)(C(=N)O3)C1(C#N)C#N (configuration not stated)	> 66 µM (inactive)	> 66 µM (inactive)	–	–	–
Cc1[nH]nc2c1C1(CCC(c3ccccc3)CC1)C(C#N)=C(N)O2 (configuration not stated)	–	–	1.51 µM (active)	5.82 µM (active)	–
COc1cc(C2C(C#N)=C(N)Oc3c2c(-c2ccccc2)nn3-c2ccccc2)cc(OC)c1OC (configuration not stated)	–	–	27.9 µM (active)	26.8 µM (active)	–
COc1ccc(C(=O)NC(=S)NC2CCSC2=O)cc1 (configuration not stated)	> 66 µM (inactive)	> 66 µM (inactive)	–	–	–
CCCn1c(=C(C#N)C#N)s/c(=C2\C=Cc3ccccc3N2CC)c1=O	> 66 µM (inactive)	> 66 µM (inactive)	–	–	–
S=C(c1ccc(Cl)cc1)N1CCOCC1 [(4-CHLOROPHENYL)(MORPHOLINO)METHANETHIONE]	> 66 µM (inactive)	> 66 µM (inactive)	–	–	–
